Experimental data from patent publication EP2487157A1, “Enantioselective synthesis method of 4-aminoalcoholquinoline derivatives and the use” (Université de Picardie Jules Verne, priority 2011, dated 2012).
In brackets after ≈: the same amount, converted by molar mass. Where two headings read alike, the source gives them in different places.

Assays:
[1] = tested on: Plasmodium falciparum chloroquine resistant (W2); test: Antimalarial test, tritiated hypoxanthine incorporation, chloroquine resistant clone W2; format: cell-based; settings: read-out: 50% inhibitory concentration followed by uncertainty about the value expressed in percentage
Procedure: (§1) Screenings of the compound according to the present invention (1f, 1h, 1i) and their isomers (1a, 1c, 1d)on strains of Plasmodium falciparum sensitive (3D7) and chloroquine resistant (W2) were realized.
(§2) The Clones of W2 and 3D7 were grown. […] Melfloquine (MQ) at the same concentrations and chloroquine (CQ) at the concentrations adapted to each clone were used as the Controls. 8 negative controls were distributed on each plate.
(§3) Then, the molecules to be tested were diluted extemporaneously in the above preparation of the plates. The growth medium was deposited after drying plates. The study was initiated when the growth medium was at the ring stage and then stopped after 1 parasitic cycle (45h).
(§4) The activity was calculated by using the Pk-Fit software on all the experimental points obtained for each molecule (except the highest concentration). The results shown in table 5 are expressed in nM and correspond to calculate a 50% inhibitory concentration followed by un certainty about the value expressed in percentage. Table 5. The biological effect of the compounds on Plasmodium falciparum

[2] = tested on: Plasmodium falciparum sensitive (3D7); test: Antimalarial test, tritiated hypoxanthine incorporation, sensitive clone 3D7; format: cell-based; settings: read-out: 50% inhibitory concentration followed by uncertainty about the value expressed in percentage
Procedure: as §1, §2, §3, §4

SAAM 51 = test: Antibacterial test, MIC by CLSI broth dilution; format: cell-based, Staphylococcus aureus; settings: SAAM 51, clinical strain resistant to methicillin; 18 to 24 h at 37°C
Procedure: (§5) The minimum inhibitory concentrations (MICs) were determined according to the recommendations of the Clinical and Laboratory Standards Institute (CLSI)^[27]. […] After incubation for 18 to 24 h (48 h for Enterococcus faecalis) at 37°C, the MIC was determined as the product concentration of the first well with no visual signs of bacterial growth (no disorder in the well). […] Table6. The antibacterial effects of the compounds

SAAM 86 = test: Antibacterial test, MIC by CLSI broth dilution; format: cell-based, Staphylococcus aureus; settings: SAAM 86, clinical strain resistant to methicillin; 18 to 24 h at 37°C
Procedure: as §5

SAAM 98 = test: Antibacterial test, MIC by CLSI broth dilution; format: cell-based, Staphylococcus aureus; settings: SAAM 98, clinical strain resistant to methicillin; 18 to 24 h at 37°C
Procedure: as §5

SAAM 27 = test: Antibacterial test, MIC by CLSI broth dilution; format: cell-based, Staphylococcus aureus; settings: SAAM 27, clinical strain resistant to methicillin; 18 to 24 h at 37°C
Procedure: as §5

SAAM 69 = test: Antibacterial test, MIC by CLSI broth dilution; format: cell-based, Staphylococcus aureus; settings: SAAM 69, clinical strain resistant to methicillin; 18 to 24 h at 37°C
Procedure: as §5

SAAM 64 = test: Antibacterial test, MIC by CLSI broth dilution; format: cell-based, Staphylococcus aureus; settings: SAAM 64, clinical strain resistant to methicillin; 18 to 24 h at 37°C
Procedure: as §5

SAAM 95 = test: Antibacterial test, MIC by CLSI broth dilution; format: cell-based, Staphylococcus aureus; settings: SAAM 95, clinical strain resistant to methicillin; 18 to 24 h at 37°C
Procedure: as §5

SAAM 12 = test: Antibacterial test, MIC by CLSI broth dilution; format: cell-based, Staphylococcus aureus; settings: SAAM 12, clinical strain resistant to methicillin; 18 to 24 h at 37°C
Procedure: as §5

E. faecalis CIP 103214 = test: Antibacterial test, MIC by CLSI broth dilution; format: cell-based, Enterococcus faecalis; settings: 48 h at 37°C, Mueller-Hinton
Procedure: as §5

E. coli DSM 1103 = test: Antibacterial test, MIC by CLSI broth dilution; format: cell-based; settings: 18 to 24 h at 37°C, Mueller-Hinton
Procedure: as §5

P. aeruginosa DSM 1117 = test: Antibacterial test, MIC by CLSI broth dilution; format: cell-based; settings: 18 to 24 h at 37°C, Mueller-Hinton
Procedure: as §5

S. aureus CIP 103429 = test: Antibacterial test, MIC by CLSI broth dilution; format: cell-based; settings: 18 to 24 h at 37°C, Mueller-Hinton
Procedure: as §5

CNS adenosine receptors = settings: result in words, from literature; cited from earlier work
[3] = tested on: Sierra Leone and Indochina P. falciparum strains; settings: ratio of IC50 values against Sierra Leone and Indochina P. falciparum strains; cited from earlier work
[4] = W2 clone, chloroquine resistant, 1 parasitic cycle (45h), bracket = uncertainty in %
[5] = 3D7 clone, sensitive, 1 parasitic cycle (45h), bracket = uncertainty in %

Structure (SMILES)	IC50 [1, 4]	IC50 [2, 5]	minimum inhibitory concentrations (MICs) (SAAM 51)	minimum inhibitory concentrations (MICs) (SAAM 86)	minimum inhibitory concentrations (MICs) (SAAM 98)	minimum inhibitory concentrations (MICs) (SAAM 27)	minimum inhibitory concentrations (MICs) (SAAM 69)	minimum inhibitory concentrations (MICs) (SAAM 64)	minimum inhibitory concentrations (MICs) (SAAM 95)	minimum inhibitory concentrations (MICs) (SAAM 12)	minimum inhibitory concentrations (MICs) (E. faecalis CIP 103214)	minimum inhibitory concentrations (MICs) (E. coli DSM 1103)	minimum inhibitory concentrations (MICs) (P. aeruginosa DSM 1117)	minimum inhibitory concentrations (MICs) (S. aureus CIP 103429)	IC50 ([1]; W2, 45 h)	IC50 ([2]; 3D7, 45 h)	binding to CNS adenosine receptors (CNS adenosine receptors)	more potent than the (-)-enantiomer by a factor [3]
CCN(CC)CCCC(C)Nc1ccnc2cc(Cl)ccc12 (stereo not shown) [CQ, chloroquine, reference compound]	–	–	–	–	–	–	–	–	–	–	–	–	–	–	0.572 µM	0.0325 µM	–	–
O[C@@H](c1cc(C(F)(F)F)nc2c(C(F)(F)F)cccc12)[C@H]1CCCCN1 (single isomer, unassigned) [(-)-enantiomer of mefloquine]	–	–	–	–	–	–	–	–	–	–	–	–	–	–	–	–	binds to CNS adenosine receptors	–
O[C@H](c1cc(C(F)(F)F)nc2c(C(F)(F)F)cccc12)[C@@H]1CCCCN1 (relative stereo) [MQ, (±)-(R*,S*)-α-2-piperidinyl-2,8-bis(trifluoromethyl)-4-quinolinemethanol, reference compound]	0.0265 µM	0.0522 µM	16 mg/L (≈ 42.3 µM)	16 mg/L (≈ 42.3 µM)	32 mg/L (≈ 84.6 µM)	16 mg/L (≈ 42.3 µM)	16 mg/L (≈ 42.3 µM)	32 mg/L (≈ 84.6 µM)	16 mg/L (≈ 42.3 µM)	16 mg/L (≈ 42.3 µM)	16 to 32 mg/L	64 mg/L (≈ 169 µM)	>128 mg/L	16 to 32 mg/L	–	–	–	–
O[C@H](c1cc(C(F)(F)F)nc2c(C(F)(F)F)cccc12)[C@@H]1CCCCN1 (single isomer, unassigned) [(+)-enantiomer of the mefloquine]	–	–	–	–	–	–	–	–	–	–	–	–	–	–	–	–	without significant activity	1.69

Further lines, with some results ahead:

IC50 [1, 4]	IC50 [2, 5]	minimum inhibitory concentrations (MICs) (SAAM 51)	minimum inhibitory concentrations (MICs) (SAAM 86)	minimum inhibitory concentrations (MICs) (SAAM 98)	minimum inhibitory concentrations (MICs) (SAAM 27)	minimum inhibitory concentrations (MICs) (SAAM 69)	minimum inhibitory concentrations (MICs) (SAAM 64)	minimum inhibitory concentrations (MICs) (SAAM 95)	minimum inhibitory concentrations (MICs) (SAAM 12)	minimum inhibitory concentrations (MICs) (E. faecalis CIP 103214)	minimum inhibitory concentrations (MICs) (E. coli DSM 1103)	minimum inhibitory concentrations (MICs) (P. aeruginosa DSM 1117)	minimum inhibitory concentrations (MICs) (S. aureus CIP 103429)	Structure (SMILES)	IC50 ([1]; W2, 45 h)	IC50 ([2]; 3D7, 45 h)	binding to CNS adenosine receptors (CNS adenosine receptors)	more potent than the (-)-enantiomer by a factor [3]
0.0094 µM	0.0145 µM	2 mg/L (≈ 4.9 µM)	8 mg/L (≈ 19.6 µM)	8 mg/L (≈ 19.6 µM)	2 mg/L (≈ 4.9 µM)	4 mg/L (≈ 9.79 µM)	4 mg/L (≈ 9.79 µM)	2 mg/L (≈ 4.9 µM)	2 mg/L (≈ 4.9 µM)	4 to 8 mg/L	>128 mg/L	>128 mg/L	4 to 8 mg/L	CCCCCCNC[C@@H](O)c1cc(C(F)(F)F)nc2c(C(F)(F)F)cccc12 [Compound 1i, (S)-1-(2,8-bis(trifluoromethyl)quinolin-4-yl)-2-(hexylamino)ethanol]	–	–	–	–
0.142 µM	0.205 µM	4 mg/L (≈ 9.79 µM)	4 mg/L (≈ 9.79 µM)	4 mg/L (≈ 9.79 µM)	4 mg/L (≈ 9.79 µM)	4 mg/L (≈ 9.79 µM)	4 mg/L (≈ 9.79 µM)	4 mg/L (≈ 9.79 µM)	4 mg/L (≈ 9.79 µM)	4 to 8 mg/L	16 mg/L (≈ 39.2 µM)	>128 mg/L	4 to 8 mg/L	CCCCCCNC[C@H](O)c1cc(C(F)(F)F)nc2c(C(F)(F)F)cccc12 [Compound 1d, (R)-1-(2,8-bis(trifluoromethyl)quinolin-4-yl)-2-(hexylamino)ethanol]	–	–	–	–
0.0191 µM	0.0351 µM	4 mg/L (≈ 9.65 µM)	8 mg/L (≈ 19.3 µM)	8 mg/L (≈ 19.3 µM)	4 mg/L (≈ 9.65 µM)	8 mg/L (≈ 19.3 µM)	>128 mg/L	4 mg/L (≈ 9.65 µM)	4 mg/L (≈ 9.65 µM)	8 mg/L (≈ 19.3 µM)	>128 mg/L	>128 mg/L	4 to 8 mg/L	O[C@H](CNCc1ccccc1)c1cc(C(F)(F)F)nc2c(C(F)(F)F)cccc12 [Compound 1f, (S)-2-(benzylamino)-1-(2,8-bis(trifluoromethyl)quinolin-4-yl)ethanol]	–	–	–	–
0.0411 µM	0.104 µM	4 mg/L (≈ 9.65 µM)	8 mg/L (≈ 19.3 µM)	>128 mg/L	4 mg/L (≈ 9.65 µM)	8 mg/L (≈ 19.3 µM)	>128 mg/L	4 mg/L (≈ 9.65 µM)	4 mg/L (≈ 9.65 µM)	>128 mg/L	>128 mg/L	>128 mg/L	>128 mg/L	O[C@@H](CNCc1ccccc1)c1cc(C(F)(F)F)nc2c(C(F)(F)F)cccc12 [Compound 1a, (R)-2-(benzylamino)-1-(2,8-bis(trifluoromethyl)quinolin-4-yl)ethanol]	–	–	–	–
0.0382 µM	0.0747 µM	8 mg/L (≈ 20.3 µM)	16 mg/L (≈ 40.6 µM)	16 mg/L (≈ 40.6 µM)	8 mg/L (≈ 20.3 µM)	8 mg/L (≈ 20.3 µM)	16 mg/L (≈ 40.6 µM)	8 mg/L (≈ 20.3 µM)	8 mg/L (≈ 20.3 µM)	16 to 32 mg/L	32 mg/L (≈ 81.1 µM)	>128 mg/L	16 to 32 mg/L	CCCCCNC[C@H](O)c1cc(C(F)(F)F)nc2c(C(F)(F)F)cccc12 [Compound 1c, (R)-1-(2,8-bis(trifluoromethyl)quinolin-4-yl)-2-(pentylamino)ethanol]	–	–	–	–
0.00698 µM	0.00833 µM	8 mg/L (≈ 20.3 µM)	16 mg/L (≈ 40.6 µM)	16 mg/L (≈ 40.6 µM)	8 mg/L (≈ 20.3 µM)	8 mg/L (≈ 20.3 µM)	16 mg/L (≈ 40.6 µM)	8 mg/L (≈ 20.3 µM)	8 mg/L (≈ 20.3 µM)	16 to 32 mg/L	16 mg/L (≈ 40.6 µM)	>128 mg/L	16 to 32 mg/L	CCCCCNC[C@@H](O)c1cc(C(F)(F)F)nc2c(C(F)(F)F)cccc12 [Compound 1h, (S)-1-(2,8-bis(trifluoromethyl)quinolin-4-yl)-2-(pentylamino)ethanol]	–	–	–	–
